Test results taken from the NIST ThermoML archive (doi:10.1021/je500594z).
± gives the expanded uncertainty stated by the source.

Test: xn = mol fraction of the nth substance listed
Conditions: 101 kPa, Liquid; for viscosity: Falling or rolling sphere viscometry; for speed of sound: Sing-around technique in a fixed-path interferometer; for mass density: Vibrating tube method

CCCC[n+]1ccn(C)c1.O=S(=O)([N-]S(=O)(=O)C(F)(F)F)C(F)(F)F + CCO
viscosity (278.15 K, x1 = 0.049): 2.64 ± 0.02 mPa·s
viscosity (278.15 K, x1 = 0.096): 3.8 ± 0.03 mPa·s
viscosity (278.15 K, x1 = 0.194): 7.4 ± 0.06 mPa·s
viscosity (278.15 K, x1 = 0.288): 12.59 ± 0.1 mPa·s
viscosity (278.15 K, x1 = 0.39): 18.82 ± 0.15 mPa·s
viscosity (278.15 K, x1 = 0.484): 26.93 ± 0.21 mPa·s
viscosity (278.15 K, x1 = 0.591): 38 ± 0.3 mPa·s
viscosity (278.15 K, x1 = 0.696): 52.96 ± 0.15 mPa·s
viscosity (278.15 K, x1 = 0.818): 77.99 ± 1.2 mPa·s
viscosity (278.15 K, x1 = 0.9): 99.43 ± 2.3 mPa·s
viscosity (278.15 K, x1 = 1): 139.82 ± 4.8 mPa·s
speed of sound (278.15 K, x1 = 0.049): 1204.6 ± 0.63 m/s
speed of sound (278.15 K, x1 = 0.096): 1204.5 ± 0.63 m/s
speed of sound (278.15 K, x1 = 0.194): 1213.9 ± 0.64 m/s
speed of sound (278.15 K, x1 = 0.288): 1225.4 ± 0.64 m/s
speed of sound (278.15 K, x1 = 0.39): 1237.1 ± 0.64 m/s
speed of sound (278.15 K, x1 = 0.484): 1245.5 ± 0.65 m/s
speed of sound (278.15 K, x1 = 0.591): 1253.5 ± 0.65 m/s
speed of sound (278.15 K, x1 = 0.696): 1260 ± 0.65 m/s
speed of sound (278.15 K, x1 = 0.818): 1266.3 ± 0.65 m/s
speed of sound (278.15 K, x1 = 0.9): 1269.8 ± 0.66 m/s
speed of sound (278.15 K, x1 = 1): 1273.8 ± 0.66 m/s
mass density (278.15 K, x1 = 0.049): 939.65 ± 0.13 kg/m3
mass density (278.15 K, x1 = 0.096): 1032.42 ± 0.15 kg/m3
mass density (278.15 K, x1 = 0.194): 1162.65 ± 0.23 kg/m3
mass density (278.15 K, x1 = 0.288): 1241.69 ± 0.24 kg/m3
mass density (278.15 K, x1 = 0.39): 1300.98 ± 0.25 kg/m3
mass density (278.15 K, x1 = 0.484): 1340.75 ± 0.25 kg/m3
mass density (278.15 K, x1 = 0.591): 1375.63 ± 0.22 kg/m3
mass density (278.15 K, x1 = 0.696): 1401.82 ± 0.2 kg/m3
mass density (278.15 K, x1 = 0.818): 1426.17 ± 0.21 kg/m3
mass density (278.15 K, x1 = 0.9): 1439.65 ± 0.21 kg/m3
mass density (278.15 K, x1 = 1): 1453.69 ± 0.21 kg/m3
viscosity (298.15 K, x1 = 0.049): 1.71 ± 0.01 mPa·s
viscosity (298.15 K, x1 = 0.096): 2.35 ± 0.02 mPa·s
viscosity (298.15 K, x1 = 0.194): 4.13 ± 0.03 mPa·s
viscosity (298.15 K, x1 = 0.288): 6.64 ± 0.05 mPa·s
viscosity (298.15 K, x1 = 0.39): 9.5 ± 0.08 mPa·s
viscosity (298.15 K, x1 = 0.484): 12.92 ± 0.1 mPa·s
viscosity (298.15 K, x1 = 0.591): 17.3 ± 0.14 mPa·s
viscosity (298.15 K, x1 = 0.696): 22.86 ± 0.18 mPa·s
viscosity (298.15 K, x1 = 0.818): 31.21 ± 0.24 mPa·s
viscosity (298.15 K, x1 = 0.9): 38.05 ± 0.3 mPa·s
viscosity (298.15 K, x1 = 1): 51.22 ± 0.12 mPa·s
speed of sound (298.15 K, x1 = 0.049): 1142.4 ± 0.61 m/s
speed of sound (298.15 K, x1 = 0.096): 1146.4 ± 0.61 m/s
speed of sound (298.15 K, x1 = 0.194): 1160.7 ± 0.62 m/s
speed of sound (298.15 K, x1 = 0.288): 1174.6 ± 0.62 m/s
speed of sound (298.15 K, x1 = 0.39): 1188 ± 0.63 m/s
speed of sound (298.15 K, x1 = 0.484): 1197.4 ± 0.63 m/s
speed of sound (298.15 K, x1 = 0.591): 1206.2 ± 0.63 m/s
speed of sound (298.15 K, x1 = 0.696): 1213.2 ± 0.63 m/s
speed of sound (298.15 K, x1 = 0.818): 1219.8 ± 0.64 m/s
speed of sound (298.15 K, x1 = 0.9): 1223.6 ± 0.64 m/s
speed of sound (298.15 K, x1 = 1): 1227.5 ± 0.64 m/s
mass density (298.15 K, x1 = 0.049): 921.49 ± 0.13 kg/m3
mass density (298.15 K, x1 = 0.096): 1013.65 ± 0.15 kg/m3
mass density (298.15 K, x1 = 0.194): 1143.26 ± 0.23 kg/m3
mass density (298.15 K, x1 = 0.288): 1222.07 ± 0.24 kg/m3
mass density (298.15 K, x1 = 0.39): 1281.27 ± 0.25 kg/m3
mass density (298.15 K, x1 = 0.484): 1321.04 ± 0.24 kg/m3
mass density (298.15 K, x1 = 0.591): 1355.98 ± 0.21 kg/m3
mass density (298.15 K, x1 = 0.696): 1382.23 ± 0.2 kg/m3
mass density (298.15 K, x1 = 0.818): 1406.65 ± 0.2 kg/m3
mass density (298.15 K, x1 = 0.9): 1420.19 ± 0.2 kg/m3
mass density (298.15 K, x1 = 1): 1434.23 ± 0.21 kg/m3
viscosity (318.15 K, x1 = 0.049): 1.18 ± 0.01 mPa·s
viscosity (318.15 K, x1 = 0.096): 1.57 ± 0.01 mPa·s
viscosity (318.15 K, x1 = 0.194): 2.61 ± 0.02 mPa·s
viscosity (318.15 K, x1 = 0.288): 3.95 ± 0.03 mPa·s
viscosity (318.15 K, x1 = 0.39): 5.62 ± 0.04 mPa·s
viscosity (318.15 K, x1 = 0.484): 7.52 ± 0.06 mPa·s
viscosity (318.15 K, x1 = 0.591): 9.76 ± 0.08 mPa·s
viscosity (318.15 K, x1 = 0.696): 12.42 ± 0.1 mPa·s
viscosity (318.15 K, x1 = 0.818): 16.16 ± 0.13 mPa·s
viscosity (318.15 K, x1 = 0.9): 19.03 ± 0.15 mPa·s
viscosity (318.15 K, x1 = 1): 24.36 ± 0.19 mPa·s
speed of sound (318.15 K, x1 = 0.049): 1082 ± 0.59 m/s
speed of sound (318.15 K, x1 = 0.096): 1090 ± 0.59 m/s
speed of sound (318.15 K, x1 = 0.194): 1109.1 ± 0.6 m/s
speed of sound (318.15 K, x1 = 0.288): 1125.5 ± 0.6 m/s
speed of sound (318.15 K, x1 = 0.39): 1140.5 ± 0.61 m/s
speed of sound (318.15 K, x1 = 0.484): 1150.8 ± 0.61 m/s
speed of sound (318.15 K, x1 = 0.591): 1160.7 ± 0.62 m/s
speed of sound (318.15 K, x1 = 0.696): 1168.3 ± 0.62 m/s
speed of sound (318.15 K, x1 = 0.818): 1175.6 ± 0.62 m/s
speed of sound (318.15 K, x1 = 0.9): 1179.7 ± 0.62 m/s
speed of sound (318.15 K, x1 = 1): 1184 ± 0.62 m/s
mass density (318.15 K, x1 = 0.049): 903.02 ± 0.14 kg/m3
mass density (318.15 K, x1 = 0.096): 994.64 ± 0.15 kg/m3
mass density (318.15 K, x1 = 0.194): 1123.77 ± 0.23 kg/m3
mass density (318.15 K, x1 = 0.288): 1202.45 ± 0.23 kg/m3
mass density (318.15 K, x1 = 0.39): 1261.65 ± 0.24 kg/m3
mass density (318.15 K, x1 = 0.484): 1301.51 ± 0.24 kg/m3
mass density (318.15 K, x1 = 0.591): 1336.54 ± 0.21 kg/m3
mass density (318.15 K, x1 = 0.696): 1362.91 ± 0.19 kg/m3
mass density (318.15 K, x1 = 0.818): 1387.44 ± 0.19 kg/m3
mass density (318.15 K, x1 = 0.9): 1401.04 ± 0.19 kg/m3
mass density (318.15 K, x1 = 1): 1415.13 ± 0.2 kg/m3
viscosity (338.15 K, x1 = 0.049): 0.85 ± 0.01 mPa·s
viscosity (338.15 K, x1 = 0.096): 1.12 ± 0.01 mPa·s
viscosity (338.15 K, x1 = 0.194): 1.79 ± 0.02 mPa·s
viscosity (338.15 K, x1 = 0.288): 2.71 ± 0.02 mPa·s
viscosity (338.15 K, x1 = 0.39): 3.7 ± 0.03 mPa·s
viscosity (338.15 K, x1 = 0.484): 4.86 ± 0.04 mPa·s
viscosity (338.15 K, x1 = 0.591): 6.26 ± 0.05 mPa·s
viscosity (338.15 K, x1 = 0.696): 7.79 ± 0.06 mPa·s
viscosity (338.15 K, x1 = 0.818): 9.83 ± 0.08 mPa·s
viscosity (338.15 K, x1 = 0.9): 11.28 ± 0.09 mPa·s
viscosity (338.15 K, x1 = 1): 13.94 ± 0.11 mPa·s
speed of sound (338.15 K, x1 = 0.049): 1022.5 ± 0.56 m/s
speed of sound (338.15 K, x1 = 0.096): 1034.5 ± 0.57 m/s
speed of sound (338.15 K, x1 = 0.194): 1058.5 ± 0.58 m/s
speed of sound (338.15 K, x1 = 0.288): 1077.4 ± 0.59 m/s
speed of sound (338.15 K, x1 = 0.39): 1094.2 ± 0.59 m/s
speed of sound (338.15 K, x1 = 0.484): 1105.8 ± 0.6 m/s
speed of sound (338.15 K, x1 = 0.591): 1116.5 ± 0.6 m/s
speed of sound (338.15 K, x1 = 0.696): 1124.9 ± 0.6 m/s
speed of sound (338.15 K, x1 = 0.818): 1133 ± 0.6 m/s
speed of sound (338.15 K, x1 = 0.9): 1137.6 ± 0.61 m/s
speed of sound (338.15 K, x1 = 1): 1142.7 ± 0.61 m/s
mass density (338.15 K, x1 = 0.049): 883.95 ± 0.14 kg/m3
mass density (338.15 K, x1 = 0.096): 975.18 ± 0.15 kg/m3
mass density (338.15 K, x1 = 0.194): 1104.04 ± 0.23 kg/m3
mass density (338.15 K, x1 = 0.288): 1182.73 ± 0.23 kg/m3
mass density (338.15 K, x1 = 0.39): 1242.06 ± 0.24 kg/m3
mass density (338.15 K, x1 = 0.484): 1282.08 ± 0.23 kg/m3
mass density (338.15 K, x1 = 0.591): 1317.28 ± 0.2 kg/m3
mass density (338.15 K, x1 = 0.696): 1343.8 ± 0.18 kg/m3
mass density (338.15 K, x1 = 0.818): 1368.47 ± 0.18 kg/m3
mass density (338.15 K, x1 = 0.9): 1382.15 ± 0.19 kg/m3
mass density (338.15 K, x1 = 1): 1396.35 ± 0.19 kg/m3
